According to patent US20250135022A1, “METHODS FOR THE USE OF A B7-H3 ANTIBODY-DRUG CONJUGATE IN COMBINATION WITH A PD-1 X CTLA-4 BISPECIFIC MOLECULE” (MACROGENICS, INC., priority 2022, published 2025):

Assays:
Calu-6 lung cancer cells [1] = assay: Anti-tumor activity against subcutaneously implanted Calu-6 xenograft in SCID CES1c-KO mouse model; format: in vivo, SCID CES1c-KO mice; parameters: key to Anti-Tumor Activity: Highly Active: A T/C<10% is considered highly active; Active: a T/C≤42% is the minimum level of anti-tumor activity; Inactive: a T/C value of >42% is inactive
Method: In brief, ˜5×10^6 tumor cells (suspended in 1:1 media and MATRIGEL®) were subcutaneously implanted into the flank of female SCID CES1c-KO mice (Charles River Laboratories). When tumors had reached a volume of approximately 50-180 mm^3 (average 105 mm^3) on day 16, the mice were randomized and MGC018 or control vehicle were administered intravenously. In these studies, mice were administered either a single dose (1 mg/kg or 3 mg/kg, QW×1) of MGC018 or a fractionated dose of MGC018 (0.3 mg/kg or 1 mg/kg) once a week for 4 weeks (QW×4W). Vehicle was administered as a control on day 16. Tumors were measured twice weekly by orthogonal measurements with electronic calipers, with tumor volumes calculated as: (length×width×height)/2. The tumor volume (relative to control) was determined (“T/C”). A finding that the tumor volume of treated animals had decreased to ≤5 mm^3 during the study period was considered to denote a Complete Regression (“CR”) and a Partial Regression (“PR”) was defined when tumors were reduced by 50% or greater from day of dosing at any point during the study.

Calu-6 lung cancer cells [2] = assay: Anti-tumor activity against subcutaneously implanted Calu-6 xenograft in CD-1 Nude mouse model; format: in vivo, CD-1 Nude mice; parameters: key to Anti-Tumor Activity: Highly Active: A T/C<10% is considered highly active; Active: a T/C≤42% is the minimum level of anti-tumor activity; Inactive: a T/C value of >42% is inactive
Method: In brief, ˜5×10^6 tumor cells (suspended in 1:1 media and MATRIGEL®) were subcutaneously implanted into the flank of female CD-1 Nude mice (homozygous; Charles River Laboratories). When tumors had reached a volume of approximately 100-235 mm3 (average 172 mm^3) on day 21, the mice were randomized and MGC018 or control vehicle were administered intravenously. In these studies, mice were administered either a single dose (12 mg/kg, QW×1) of MGC018 or a fractionated dose of MGC018 (0.3 mg/kg, 1 mg/kg, or 3 mg/kg) once a week for 4 weeks (QW×4W). Vehicle was administered as a control on day 21. Tumors were measured twice weekly by orthogonal measurements with electronic calipers, with tumor volumes calculated as: (length×width×height)/2. The tumor volume (relative to control) was determined (“T/C”). A finding that the tumor volume of treated animals had decreased to ≤5 mm^3 during the study period was considered to denote a Complete Regression (“CR”) and a Partial Regression (“PR”) was defined when tumors were reduced by 50% or greater from day of dosing at any point during the study.

[3] = Population pharmacokinetic (PPK) modeling of clinical PK data from a dose escalation trial; format: in vivo, human
Method: To analyze the pharmacokinetics of single and fractionated dose administration of MGC018, population pharmacokinetic (PPK) modeling was performed on clinical PK data from a dose escalation trial of MGC018. The initial model was based on data from 52 patients (516 ADC observations, 495 payload observations) and later updated with data from a total of 122 patients. MGC018 concentration values below quantification limit (BQL) were excluded from the analysis but were retained (commented out) in the data set.
The PPK analysis was conducted via nonlinear mixed-effects modeling with INTERACTION option (FOCEI) method using the NONMEM software, Version 7.5.0 (ICON Development Solutions). A quasi-steady-state (QSS) approximation of the target-mediated drug disposition (TMDD) model was used to describe the observed ADC data. All clearance and volume parameters were scaled allometrically. Goodness-of-fit plots and diagnostics (including standard error of the estimates) were used to evaluate the model fit. Due to the small sample size (52 subjects) no formal covariate analysis was attempted, although dependence of model parameters on weight, dose, and sex was investigated using diagnostic plots or by inclusion in the model. Ability of the model to describe strong covariate relationships identified by the model was tested by stratifying the diagnostic plots and model evaluation procedures by the covariates of interest. Specifically, the diagnostics and the predictive check procedures were stratified by dose (cohort).
Of the models evaluated, a linear 2-compartment with individual random effects on clearance (CL), central volume (Vc), peripheral volume (VP), inter-compartment clearance (Q), and proportional residual variability) best described the observed ADC data and advanced for further development of the combined ADC-free payload model. The free payload was described by a 1-compartment model with random effects on free payload clearance (CLTOX) and volume (VTOX) parameters with the input (from ADC) to both the central and delay compartments, with the random effects on the delay rate constant Ktr, CLTOX, and VTOX. The final model (Model 151) was selected based on diagnostics and goodness-of-fit and used to estimate MGC018 PK parameters. According to the model, elimination from the ADC was directed to the free payload, to the delay and central free payload compartments. Approximately equal fractions of ADC elimination went to each of these compartments. […] Thus, the free payload kinetics were defined by the kinetics of ADC and delay between ADC elimination and input to the free payload central compartment

[4] = 0.3 mg/kg, QW × 4W, intravenous

MGC018: B7-H3-ADC: Light and Heavy Chain of anti-B7-H3 hmAb-A (SEQ ID NO:19, 20) conjugated via maleimide, valine-citrulline, para-aminobenzyloxycarbonyl linker to seco-DUBA payload
% T/C at Day 50 (Calu-6 lung cancer cells [1]; [4]): 61% | Anti-Tumor Activity (Calu-6 lung cancer cells [1]; [4]): Inactive | CR (complete regression) (Calu-6 lung cancer cells [1]; [4]): 0/6 | PR (partial regression) (Calu-6 lung cancer cells [1]; [4]): 0/6 | % T/C at Day 50 (Calu-6 lung cancer cells [1]; 1 mg/kg, QW × 1, intravenous): 49% | Anti-Tumor Activity (Calu-6 lung cancer cells [1]; 1 mg/kg, QW × 1, intravenous): Inactive | CR (complete regression) (Calu-6 lung cancer cells [1]; 1 mg/kg, QW × 1, intravenous): 0/6 | PR (partial regression) (Calu-6 lung cancer cells [1]; 1 mg/kg, QW × 1, intravenous): 0/6 | % T/C at Day 50 (Calu-6 lung cancer cells [1]; 1 mg/kg, QW × 4W, intravenous): 17% | Anti-Tumor Activity (Calu-6 lung cancer cells [1]; 1 mg/kg, QW × 4W, intravenous): Active | CR (complete regression) (Calu-6 lung cancer cells [1]; 1 mg/kg, QW × 4W, intravenous): 0/6 | PR (partial regression) (Calu-6 lung cancer cells [1]; 1 mg/kg, QW × 4W, intravenous): 0/6 | % T/C at Day 50 (Calu-6 lung cancer cells [1]; 3 mg/kg, QW × 1, intravenous): 25% | Anti-Tumor Activity (Calu-6 lung cancer cells [1]; 3 mg/kg, QW × 1, intravenous): Active | CR (complete regression) (Calu-6 lung cancer cells [1]; 3 mg/kg, QW × 1, intravenous): 0/6 | PR (partial regression) (Calu-6 lung cancer cells [1]; 3 mg/kg, QW × 1, intravenous): 0/6 | anti-tumor activity of fractionated dose compared with single dose (Calu-6 lung cancer cells [1]; fractionated 0.3 and 1 mg/kg QW×4W vs single 1 or 3 mg/kg QW×1): near equivalent anti-tumor activity | % T/C at Day 44 (Calu-6 lung cancer cells [2]; [4]): 78% | Anti-Tumor Activity (Calu-6 lung cancer cells [2]; [4]): Active | CR (complete regression) (Calu-6 lung cancer cells [2]; [4]): 0/7 | PR (partial regression) (Calu-6 lung cancer cells [2]; [4]): 0/7 | % T/C at Day 44 (Calu-6 lung cancer cells [2]; 1 mg/kg, QW × 4W, intravenous): 30% | Anti-Tumor Activity (Calu-6 lung cancer cells [2]; 1 mg/kg, QW × 4W, intravenous): Active | CR (complete regression) (Calu-6 lung cancer cells [2]; 1 mg/kg, QW × 4W, intravenous): 0/7 | PR (partial regression) (Calu-6 lung cancer cells [2]; 1 mg/kg, QW × 4W, intravenous): 0/7 | % T/C at Day 44 (Calu-6 lung cancer cells [2]; 3 mg/kg, QW × 4W, intravenous): 17% | Anti-Tumor Activity (Calu-6 lung cancer cells [2]; 3 mg/kg, QW × 4W, intravenous): Active | CR (complete regression) (Calu-6 lung cancer cells [2]; 3 mg/kg, QW × 4W, intravenous): 0/7 | PR (partial regression) (Calu-6 lung cancer cells [2]; 3 mg/kg, QW × 4W, intravenous): 2/7 | % T/C at Day 44 (Calu-6 lung cancer cells [2]; 12 mg/kg, QW × 1, intravenous): 6% | CR (complete regression) (Calu-6 lung cancer cells [2]; 12 mg/kg, QW × 1, intravenous): 0/7 | PR (partial regression) (Calu-6 lung cancer cells [2]; 12 mg/kg, QW × 1, intravenous): 2/7 | anti-tumor activity of fractionated dose compared with single dose (Calu-6 lung cancer cells [2]; fractionated 0.3, 1 and 3 mg/kg QW×4W vs single 12 mg/kg QW×1): near equivalent anti-tumor activity | central volume (V) ([3]; ADC, typical 75 kg subject): 3.72 L | clearance (CL) ([3]; ADC, typical 75 kg subject): 1.68 L/day | distribution half-life (t1/2 dist) ([3]; ADC, typical 75 kg subject): 35.5 h | inter-compartment clearance (Q) ([3]; ADC, typical 75 kg subject): 0.0549 L/day | peripheral volume (Vp) ([3]; ADC, typical 75 kg subject): 0.700 L | terminal half-life (t1/2 term) ([3]; ADC, typical 75 kg subject): 220 h | half-life corresponding to delay rate constant ([3]; Model 151): 130 h | delay rate constant (Ktr) ([3]; delay between ADC elimination and input to free payload central compartment, Model 151): 0.128 day⁻¹ | free payload elimination rate constant KTOX=CLTOX/VTOX ([3]; free payload, Model 151): 52.5 day⁻¹ | half-life corresponding to free payload elimination rate constant ([3]; free payload, Model 151): about 20 minutes
